ChEMBL document CHEMBL1142647, “Potent pyrimidinetrione-based inhibitors of MMP-13 with enhanced selectivity over MMP-14” (Bioorg Med Chem Lett, 2005)
pIC50: −log10 of the molar value.

Target: Collagenase 3 (Homo sapiens, UniProt P45452)
Experiment: Inhibitory concentration against matrix metalloprotease 13

| Structure (SMILES) | pIC50 |
| --- | --- |
| CCCCC1(Oc2ccc(Oc3ccc(F)cc3)cc2)C(=O)NC(=O)NC1=O | 8.70 |
| CC1(Oc2ccc(Cl)cc2)C(=O)NC(=O)NC1=O | 6.41 |
